Measured values reported in publication PMC5066224, “A Novel Resveratrol Based Tubulin Inhibitor Induces Mitotic Arrest and Activates Apoptosis in Cancer Cells” (Scientific Reports, 2016).

Tests used:
[1] = test system: CEM cells; test: Annexin V-FITC/PI double-staining assay; assay type: cell-based, Human; conditions: 48 h; for cells in early apoptotic stage: Annexin positive; for cells in late apoptosis: Annexin/PI positive
Description: When cells undergo apoptosis, the integrity of the cell membrane is disrupted and phosphatidyl serine is exposed. Annexin V conjugated with FITC (apoptosis detection kit Santacruz, USA) has a selective affinity for phosphatidyl serine, based on which early and late apoptotic cells can be detected.
CEM cells (1 × 10^5 cells/ml) were treated with SS28 (5 and 10 μM) for 48 h. Cells were then harvested, washed with cold PBS and used for annexin-PI double-staining assay. Samples were resuspended in 1x binding buffer and incubated with Annexin V-FITC ([…]) and PI (0.05 mg/ml) and analyzed by flow cytometry (FACS calibur) using CellQuest pro software at an excitation with 488 nm laser and emission at 530 nm[55]. A minimum of 10,000 cells were acquired for each sample and illustrated as dot plot using Flowing software.

[2] = molecular target: purified Tubulin; test: Fluorescence binding study, double reciprocal plot; conditions: double reciprocal plot of fluorescence data, 1:1 binding, 30 °C, ± SEM; read-out: dissociation constant (Kd)
Description: Fluorescence spectral measurements were performed using Infinite M200 PRO microplate reader (Tecan Group Ltd., Switzerland). Briefly, SS28 (10 μM) was preincubated with increasing concentration of Tubulin (10, 25, 50, 100, 500 and 1000 nM) at 30 °C for 30 min. SS28 Tubulin complex was then scanned for the emission spectra from 345 to 545 nm at 315 nm excitation range. Resulting fluorescence intensity was plotted as the function of wavelength.
The dissociation constant (Kd) was determined using double reciprocal plot of change in fluorescence of SS28 (1/Δ(F0-F)) as a function of protein concentration by the method of Benesi and Hildebrand assuming a 1:1 binding of SS28 to Tubulin[48]. The spectral measurements were recorded three times and SEM was calculated.

[3] = test system: purified Tubulin; test: Circular dichroism of Tubulin with SS28; assay type: binding; conditions: Tubulin 1 μM in PEM buffer, 200-260 nm, 4 °C
Description: Purified Tubulin (1 μM) was resuspended in PEM buffer (80 mM PIPES (pH 6.9), 2 mM MgCl2, 0.5 mM EGTA, 1.0 mM GTP and 5% glycerol) and CD spectrum was recorded at a wavelength of 200 to 260 nm (4 °C) on a JASCO J-810 spectropolarimeter. 3 cycles were acquired for each sample at a scan speed of 100 nm/sec. Increasing concentration of SS28 (500 pM, 1, 10, 100 and 1000 nM) was incubated with Tubulin (1 μM) in PEM buffer and the spectrum was recorded. Spectral measurements were taken for buffer alone and buffer containing DMSO were subtracted from experimental data. The molar ellipticity was calculated using Spectra Manager software and plotted as a function of wavelength.

[4] = test system: several cancer cell lines; test: Cytotoxicity in cancer cell lines ex vivo (summary); assay type: cell-based
Description: The effect of SS28 on viability of CEM, Reh, Nalm6, SUDHL8, Molt4, A549, HeLa 293T, mouse embryonic fibroblast (MEF) and PBMC was determined by trypan blue dye exclusion assay as described previously. Briefly, cells (0.75 × 10^5 cells/ml) were treated with increasing concentrations of SS28 (1, 5, 10 and 20, μM) for 48 and 72 h. DMSO treated cells were used as the vehicle control. Cells were harvested and subjected to trypan blue assay. Data from a minimum of three independent experiments is presented as a histogram with error bars.

[5] = test system: EAC cells tumor; test: Antitumor activity in EAC solid tumor mouse model; assay type: in vivo; conditions: EAC tumor BALB/c mice, 15 mg/kg oral, nine doses every alternate day from 12th day, up to 28 days
Description: EAC cells were collected from donor mice (Swiss albino) and resuspended in sterile saline. A fixed number of viable cells were injected into the peritoneal cavity of each recipient mouse and were allowed to multiply. The cells were withdrawn, diluted in saline and injected (15 × 10^5 cells/animal) into the right thigh tissue of experimental animals for developing solid tumor.
A total number of 30 BALB/c mice were divided into three batches and were used for the present study. EAC cells (15 × 10^5 cells/animal) were injected into right thigh for the development of solid tumor as described previously. Among the 10 animals in each batch, 5 animals served as tumor control and the rest 5 animals received SS28 treatment (15 mg/kg b.wt.) by oral administration using gastric gavage. The dose used was selected based on preliminary studies. The first dose was given after 12th day of tumor development (9 doses over a period of 3 weeks). The diameter of developing tumor was measured using vernier calipers at alternative days for entire life span of tumor animal and tumor volume was calculated using the formula V = 0.5 × a × b^2, where “a” and “b” indicates the major and minor diameter, respectively.

[6] = test system: CEM cells; test: Cell cycle phase distribution by flow cytometry; assay type: cell-based, Human; conditions: 2 μM, after 12 h
Description: Cell cycle analysis by flow cytometry was performed as previously described. Briefly, 75,000 cells/ml (A549) were seeded in 6 well plates and grown in serum free medium for 18 h. After synchronisation, the cells were treated with 5 μM of SS28 (6, 12, 18, 24 and 30 h) and cells were processed as described before. Similarly, CEM cells (75,000 cells/ml) were treated with SS28 (2 μM) and harvested (6, 12, 18, 24 and 30 h) and processed. Following fixation, cells were resuspended in PBS and stained with propidium iodide and evaluated in a flow cytometer (FACS Calibur, Becton Dickinson) using Cell Quest Pro software using excitation 488 nm laser and emission at 560/570 nm. A minimum of 10,000 cells were acquired per sample and histograms were analysed using WinMDI 2.8 software.

[7] = test system: Tubulin polymerisation in CEM cells; test: Cell based microtubule assembly (Tubulin polymerisation) assay; set-up: species or system Human; conditions: CEM, 2, 5 and 10 μM, 24 h, pellet fraction α-Tubulin immunoblot
Description: Separation of insoluble polymerized Tubulin from soluble Tubulin dimers was performed as described. In brief, CEM cells (1 × 10^6) were treated with 2, 5 and 10 μM of SS28 for 24 h. Cells were harvested and washed with PBS before adding polymerization lysate buffer containing 20 mM Tris-HCl (pH 6.8), 1 mM MgCl2, 2 mM EGTA, […], 1 mM phenylmethylsulfonyl fluoride, 1 mM orthovanadate and 0.5% NP-40. After centrifugation of the lysates at 15,000 × g for 10 min at 4 °C, the pellets were resuspended in SDS-PAGE loading buffer and dissolved by heating at 95 °C for 10 min. α-Tubulin was then immunoblotted for the pellet fraction containing polymerized microtubules and supernatants containing depolymerised microtubules were equalised and resolved on 8% SDS PAGE.

COc1cc(/C=C/c2ccc(C)cc2)cc(OC)c1OC [SS28, (E)-1,2,3-trimethoxy-5-(4-methylstyryl)benzene]
cells in early apoptotic stage ([1]; 5 μM): 28.2% | cells in late apoptosis ([1]; 5 μM): 39.8% | cells in early apoptotic stage ([1]; 10 μM): 32.9% | cells in late apoptosis ([1]; 10 μM): 46.9% | necrosis ([1]; 5 and 10 μM): did not observe any cells undergoing necrosis | Kd [2]: 414 ± 110 nM | concentration from which a shift in the CD spectrum of Tubulin was seen [3]: ≥ 500 pM | IC50 [4]: 3000 to 5000 nM | tumor progression (tumor volume) [5]: no further tumor progression | cell cycle distribution [6]: distinct G2/M arrest | concentration from which Tubulin polymerisation was inhibited [7]: ≥ 2 µM
